EC50 data for six compounds are collected here from publication PMC5766609 (Scientific Reports, 2018).

Read-outs that look alike come from different tables or passages of the source. Starred links: 1 amine or outer side, 2 acyl side, 3 side chain; linkers in the order of their positions; H or OH if unused. Non-standard residues stand in square brackets, D forms with d. Residues, ends and D or L forms follow the SMILES beside them. Groups on a side chain read outwards from the residue. *: point of attachment. γGlu = O=C(O)[C@H](CCC(=O)[*:2])N[*:1]; Palmitoyl = CCCCCCCCCCCCCCCC(=O)*

The target in assay [1] is T1, human glucagon receptor (GCGR) (Homo sapiens, UniProt P47871).
T1 construct: expressed in transfected cells; host or cells: CHO-JumpIn cells, stably transfected
The experiment in a line: cAMP assay on CHO-JumpIn cells stably transfected with human glucagon receptor (HitHunter cAMP).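 Also: peptides tested as 4-fold serial dilutions starting from a 2 µM solution, cells exposed 1 hr at RT in darkness, cAMP quantified against a cAMP standard curve.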 The class given is cell-based. Conditions: cAMP accumulation, CHO-JumpIn cells with human GCGR, value ± spread. A general note: Cyclic AMP is a second messenger, typically raised through Gs and lowered through Gi signalling.
Description: Briefly, a 2 μM solution of peptide was prepared, and 4-fold serial dilutions were made. 150 nL of the above titration was then dispensed into an Optiplate384 using an Echo555. […] The HitHunter® cAMP Assay kit calibration curve was prepared following the manufacturer’s protocol (DiscoveRx-90-0075L). 30,000 cells/well were added to the peptides, spun briefly at 500 rpm for 15 s and incubated at RT in the dark for 1 hr. The assay was developed as per the manufacturer’s instructions. cAMP accumulation due to GLP1R agonism or GCGR agonism was measured using an EnVision platereader (PerkinElmer), and calibrated using the cAMP standard curve. Data were analyzed using Assay Data Analyzer (ADA).

In assay [2] the target is T2, human GLP-1 receptor (GLP1R) (Homo sapiens, UniProt P43220).
T2 construct: expressed in transfected cells; host or cells: CHO-JumpIn cells, stably transfected
The experiment in a line: cAMP assay on CHO-JumpIn cells stably transfected with human GLP-1 receptor (HitHunter cAMP).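 Also: peptides tested as 4-fold serial dilution series, cells exposed 1 hr at RT in the dark, cAMP quantified against a cAMP standard calibration curve.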 The class given is cell-based. The note with it: value ± spread.

[3] abbreviates: Table 2, buffer PBS, 0.1% BSA, 100 μM RO 20-1724, 20% serum, 1 hr at RT, read-out: EC50 GCGR.
Setting [4] is: Table 2, cAMP accumulation, buffer PBS, 0.1% BSA, 100 μM RO 20-1724, 20% serum, 1 hr at RT, read-out: EC50 GLP1R.

T2 sequence (P43220 24-463): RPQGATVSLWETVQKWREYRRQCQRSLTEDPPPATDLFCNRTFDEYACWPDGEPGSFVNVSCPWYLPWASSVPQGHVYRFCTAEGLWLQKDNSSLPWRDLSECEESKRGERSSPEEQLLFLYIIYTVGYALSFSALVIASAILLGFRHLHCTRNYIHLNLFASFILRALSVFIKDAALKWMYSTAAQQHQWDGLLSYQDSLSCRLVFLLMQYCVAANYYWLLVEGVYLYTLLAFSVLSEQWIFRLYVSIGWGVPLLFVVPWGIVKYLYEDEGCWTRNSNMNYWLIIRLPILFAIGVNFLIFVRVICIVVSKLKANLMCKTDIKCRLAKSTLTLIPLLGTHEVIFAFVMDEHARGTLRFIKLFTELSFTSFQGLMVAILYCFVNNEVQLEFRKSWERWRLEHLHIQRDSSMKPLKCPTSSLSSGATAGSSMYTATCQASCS
T1 sequence (P47871 26-477): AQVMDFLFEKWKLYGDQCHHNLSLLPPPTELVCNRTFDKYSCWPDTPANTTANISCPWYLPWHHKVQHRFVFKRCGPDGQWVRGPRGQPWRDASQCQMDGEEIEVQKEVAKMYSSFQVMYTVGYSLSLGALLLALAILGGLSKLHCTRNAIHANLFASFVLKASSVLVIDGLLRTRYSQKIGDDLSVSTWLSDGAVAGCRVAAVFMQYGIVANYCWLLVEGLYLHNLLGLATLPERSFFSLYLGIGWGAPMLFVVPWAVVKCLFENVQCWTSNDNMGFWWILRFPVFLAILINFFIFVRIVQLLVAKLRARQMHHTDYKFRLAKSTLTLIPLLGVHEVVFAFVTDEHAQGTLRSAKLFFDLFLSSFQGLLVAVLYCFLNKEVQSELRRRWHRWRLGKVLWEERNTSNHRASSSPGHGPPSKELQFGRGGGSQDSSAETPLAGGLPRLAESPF

The term EC50 denotes the concentration giving half of the maximal effect. As for `CC(C)C[C@H](NC(=O)[C@H](Cc1ccc(O)cc1)NC(=O)[C@H](CCCCN)NC(=O)[C@H](CO)NC(=O)[C@H](Cc1ccc(O)cc1)NC(=O)[C@H](CC(=O)O)NC(=O)[C@H](CO)NC(=O)[C@@H](NC(=O)[C@H](Cc1ccccc1)NC(=O)[C@@H](NC(=O)CNC(=O)[C@H](CCC(N)=O)NC(=O)[C@H](CO)NC(=O)[C@@H](N)Cc1c[nH]cn1)[C@@H](C)O)[C@@H](C)O)C(=O)N[C@@H](CC(=O)O)C(=O)N[C@@H](CO)C(=O)N[C@@H](CCCNC(=N)N)C(=O)N[C@@H](CCCNC(=N)N)C(=O)N[C@@H](C)C(=O)N[C@@H](Cc1c[nH]cn1)C(=O)N[C@@H](CC(=O)O)C(=O)N[C@@H](Cc1ccccc1)C(=O)N[C@H](C(=O)N[C@@H](CCC(N)=O)C(=O)N[C@@H](Cc1c[nH]c2ccccc12)C(=O)N[C@@H](CC(C)C)C(=O)N[C@@H](CC(C)C)C(=O)N[C@@H](CC(N)=O)C(=O)N[C@H](C(N)=O)[C@@H](C)O)C(C)C` [Peptide 11] (H-HSQGTFTSDYSKYLDSRRAHDFVQWLLNT-NH2), the results for the concentration giving a half-maximal response (EC50) in assay [1] (setting [3]) and in assay [2] (setting [4]) were 0.018 ± 0.005 nM and 0.018 ± 0.001 nM, respectively.
On the same counts, the results for `CSCC[C@H](NC(=O)[C@H](CC(C)C)NC(=O)[C@H](CO)NC(=O)[C@H](CC(=O)O)NC(=O)[C@H](CC(C)C)NC(=O)[C@H](Cc1ccc(O)cc1)NC(=O)[C@H](CCCCN)NC(=O)[C@H](CO)NC(=O)[C@H](Cc1ccc(O)cc1)NC(=O)[C@H](CC(=O)O)NC(=O)[C@H](CO)NC(=O)[C@@H](NC(=O)[C@H](Cc1ccccc1)NC(=O)[C@@H](NC(=O)CNC(=O)[C@H](CCC(N)=O)NC(=O)[C@H](CO)NC(=O)[C@@H](N)Cc1c[nH]cn1)[C@@H](C)O)[C@@H](C)O)C(=O)N[C@@H](C)C(=O)N[C@@H](CCC(N)=O)C(=O)N[C@@H](CC(=O)O)C(=O)N[C@@H](Cc1ccccc1)C(=O)N[C@H](C(=O)N[C@@H](CCC(N)=O)C(=O)N[C@@H](Cc1c[nH]c2ccccc12)C(=O)N[C@@H](CC(C)C)C(=O)N[C@@H](CCSC)C(=O)N[C@@H](CO)C(=O)N[C@H](C(N)=O)[C@@H](C)O)C(C)C` [Peptide 5] (H-HSQGTFTSDYSKYLDSLMAQDFVQWLMST-NH2) are 0.025 ± 0.001 nM and 0.133 ± 0.032 nM.
On the same counts, the results for `CSCC[C@H](NC(=O)[C@H](CC(C)C)NC(=O)[C@H](Cc1c[nH]c2ccccc12)NC(=O)[C@H](CCC(N)=O)NC(=O)[C@@H](NC(=O)[C@H](Cc1ccccc1)NC(=O)[C@H](CC(=O)O)NC(=O)[C@H](Cc1c[nH]c2ccccc12)NC(=O)[C@H](C)NC(=O)[C@H](C)NC(=O)[C@H](CCCNC(=N)N)NC(=O)[C@H](CCC(=O)O)NC(=O)[C@H](CC(=O)O)NC(=O)[C@H](CC(C)C)NC(=O)[C@H](Cc1ccc(O)cc1)NC(=O)[C@H](CCCCN)NC(=O)[C@H](CCCNC(=N)N)NC(=O)[C@H](Cc1ccc(O)cc1)NC(=O)[C@H](CC(=O)O)NC(=O)[C@H](CO)NC(=O)[C@@H](NC(=O)[C@H](Cc1ccccc1)NC(=O)[C@@H](NC(=O)CNC(=O)[C@H](CCC(N)=O)NC(=O)[C@H](CO)NC(=O)[C@@H](N)Cc1c[nH]cn1)[C@@H](C)O)[C@@H](C)O)C(C)C)C(=O)N[C@@H](CC(N)=O)C(=O)N[C@H](C(N)=O)[C@@H](C)O` [Peptide 3] (H-HSQGTFTSDYRKYLDERAAWDFVQWLMNT-NH2) are 1.35 ± 0.173 nM and 0.427 ± 0.022 nM.
On the same counts, the results for `CC[C@H](C)[C@H](NC(=O)[C@H](CO)NC(=O)[C@H](CC(=O)O)NC(=O)[C@H](CC(C)C)NC(=O)[C@H](Cc1ccc(O)cc1)NC(=O)[C@H](CCCCN)NC(=O)[C@H](CO)NC(=O)[C@H](Cc1ccc(O)cc1)NC(=O)[C@H](CC(=O)O)NC(=O)[C@H](CO)NC(=O)[C@@H](NC(=O)[C@H](Cc1ccccc1)NC(=O)[C@@H](NC(=O)CNC(=O)[C@H](CCC(N)=O)NC(=O)[C@H](CO)NC(=O)[C@@H](N)Cc1c[nH]cn1)[C@@H](C)O)[C@@H](C)O)C(=O)N[C@@H](CCCNC(=N)N)C(=O)N[C@@H](C)C(=O)N[C@@H](CCC(N)=O)C(=O)N[C@@H](CC(=O)O)C(=O)N[C@@H](Cc1ccccc1)C(=O)N[C@H](C(=O)N[C@@H](CCC(N)=O)C(=O)N[C@@H](Cc1c[nH]c2ccccc12)C(=O)N[C@@H](CC(C)C)C(=O)N[C@@H](CCSC)C(=O)N[C@@H](CC(=O)O)C(=O)N[C@H](C(N)=O)[C@@H](C)O)C(C)C` [Peptide 18] (H-HSQGTFTSDYSKYLDSIRAQDFVQWLMDT-NH2) are 0.037 ± 0.011 nM and 0.056 ± 0.012 nM.
Consider `CSCC[C@H](NC(=O)[C@H](CCCNC(=N)N)NC(=O)[C@H](CO)NC(=O)[C@H](CC(=O)O)NC(=O)[C@H](CC(C)C)NC(=O)[C@H](Cc1ccc(O)cc1)NC(=O)[C@H](CCCCN)NC(=O)[C@H](CO)NC(=O)[C@H](Cc1ccc(O)cc1)NC(=O)[C@H](CC(=O)O)NC(=O)[C@H](CO)NC(=O)[C@@H](NC(=O)[C@H](Cc1ccccc1)NC(=O)[C@@H](NC(=O)CNC(=O)[C@H](CCC(N)=O)NC(=O)[C@H](CO)NC(=O)[C@@H](N)Cc1c[nH]cn1)[C@@H](C)O)[C@@H](C)O)C(=O)N[C@@H](C)C(=O)N[C@@H](Cc1ccc(O)cc1)C(=O)N[C@@H](CC(=O)O)C(=O)N[C@@H](Cc1ccccc1)C(=O)N[C@H](C(=O)N[C@@H](CCC(N)=O)C(=O)N[C@@H](Cc1c[nH]c2ccccc12)C(=O)N[C@@H](CC(C)C)C(=O)N[C@@H](CCSC)C(=O)N[C@@H](CC(N)=O)C(=O)N[C@H](C(N)=O)[C@@H](C)O)C(C)C` [Peptide 33] (H-HSQGTFTSDYSKYLDSRMAYDFVQWLMNT-NH2), for which the 50% effective concentration (EC50) in assay [1] (setting [3]) is 0.079 ± 0.033 nM; in assay [2] (setting [4]) it was 0.059 ± 0.003 nM.
For `CCCCCCCCCCCCCCCC(=O)N[C@@H](CCC(=O)N[C@@H](CCC(=O)NCCCC[C@H](NC(=O)[C@H](CC(=O)O)NC(=O)[C@H](CO)NC(=O)[C@H](CC(C)C)NC(=O)[C@H](Cc1ccccc1)NC(=O)[C@@H](NC(=O)CNC(=O)[C@H](CCC(N)=O)NC(=O)[C@@H](CO)NC(=O)[C@@H](N)Cc1c[nH]cn1)[C@@H](C)O)C(=O)N[C@@H](CO)C(=O)N[C@@H](CCCCN)C(=O)N[C@@H](CC(C)C)C(=O)N[C@@H](CC(C)C)C(=O)N[C@@H](CC(=O)O)C(=O)N[C@@H](CO)C(=O)N[C@@H](CCCNC(=N)N)C(=O)N[C@@H](CCCNC(=N)N)C(=O)N[C@@H](C)C(=O)N[C@@H](CCC(N)=O)C(=O)N[C@@H](CC(=O)O)C(=O)N[C@@H](Cc1ccccc1)C(=O)N[C@H](C(=O)N[C@@H](CCC(N)=O)C(=O)N[C@@H](Cc1c[nH]c2ccccc12)C(=O)N[C@@H](CC(C)C)C(=O)N[C@@H](CCSC)C(=O)N[C@@H](CCC(N)=O)C(=O)N[C@H](C(N)=O)[C@@H](C)O)C(C)C)C(=O)O)C(=O)O` [Peptide 37] (H-H[dS]QGTFLSDK([γGlu-γGlu-Palmitoyl])SKLLDSRRAQDFVQWLMQT-NH2; N-terminus assumed), the EC50 in assay [1] (Table 3, engineered versus parent peptides, read-out: EC50 hGCGR) came out at 0.037 ± 0.004 nM; in assay [2] (Table 3, engineered versus parent peptides, cAMP accumulation, read-out: EC50 hGLP1), 23.5 ± 7.6 nM.
